Assays:
[1] = target: T1, Mouse Liver MTA Phosphorylase (Mus musculus, UniProt Q9CQ65); assay: Mouse liver MTA phosphorylase substrate/inhibitor assay; assay type: biochemical
T1 sequence (Q9CQ65 1-283): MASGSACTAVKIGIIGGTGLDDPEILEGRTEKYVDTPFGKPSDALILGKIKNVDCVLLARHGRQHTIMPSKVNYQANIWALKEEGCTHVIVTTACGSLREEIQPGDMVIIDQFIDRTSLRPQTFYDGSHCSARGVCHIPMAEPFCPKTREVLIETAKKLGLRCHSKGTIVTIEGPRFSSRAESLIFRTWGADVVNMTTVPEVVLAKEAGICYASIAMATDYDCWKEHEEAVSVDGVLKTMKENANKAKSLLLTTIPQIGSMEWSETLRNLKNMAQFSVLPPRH
Procedure: ^a MTA phosphorylase activity was assayed as described in Sufrin et

[2] = test system: STO-1 (human melanoma); assay: In vitro evaluation, STO-1; assay type: cell-based; conditions: STO-1, medium B, 72 hours
Procedure: (§1) In vitro evaluations of the compound 5'-deoxy-5'-(monofluoroethylthio) adenosine (MFETA) were performed using the materials and conditions described in Tables 9 and 10.
(§2) ^(a) Basal medium = RPMI 1640 + 20 mM HEPES + 2 mM Lglutamine
(§3) B = 5% FCS + 5% NuSerum IV

[3] = target: T2, T. b. brucei MTA phosphorylase (Trypanosoma brucei, UniProt Q57XS4); assay: T. b. brucei MTA phosphorylase substrate assay; assay type: biochemical; conditions: relative to MTA
T2 construct: MTA or analogs as substrates
Procedure: ^a MTA phosphorylase was assayed according to Ghoda et al., using 200
μM MTA (saturating) or analogs as substrates. Specific activities of
the dialyzed enzyme preparations were with 50 mM PO4, 104.97 n
moles/mg protein/h; without PO4, 28.27 n moles/mg protein/h. Results
are expressed as percent activity compared to as substrate with and
without PO4, respectively.

[4] = test system: MOLT-4 cells (MTA phosphorylase-containing); assay: Growth inhibition of MOLT-4 cells; assay type: cell-based, human; conditions: Homo sapiens, MOLT-4, 96 h
Procedure: L1210, L5178Y and MOLT-4 cell lines were grown in RPMI 1640 and 10% Nu Serum (Collaborative Research Inc., Lexington, Mass.) and CCRF-CEM cells were grown in 10% Horse Serum (Gibco Laboratories, Grand Island, N.Y.) and maintained as previously described for suspension cultures by Pera et al. in Cancer Res. 46, 1148, 1986. Cell cultures (0.3×10^5 cells/ml) were treated with each compound at 0.1 to 1000 μM to determine the concentration that inhibited growth by 50% (IC50) at 48 hr for the L1210 and L5178Y cells and at 96 hr for the CCRF-CEM and MOLT-4 cells. The incubation times allowed approximately 4 cell doublings in each cell line. All compounds were freshly prepared prior to treatment by dissolving in DMSO and diluting in serum-free media. Cells were counted by electron particle counting (Model XF' Coulter Counter; Coulter Electronics, Hialeah, Fla.).
For each compound, the concentrations required to inhibit cell growth by 50% (IC50 values) are shown in Table 7 for two murine leukemic cell lines, L1210 and L5178Y [MTA phosphorylase-deficient and MTA phosphorylase-containing, respectively] and two human leukemic cell lines, CCRF-CEM and MOLT-4 [MTA phosphorylase-deficient and MTA phosphorylase-containing, respectively]. ETA, MFETA, HETA and PTA had lower IC50 values in the L5178Y cells than in the L1210 cells. […] This differential is consistent with the possibility that, in L5178Y cells, MFETA is cleaved by MTA phosphorylase to the growth inhibitory metabolite, 5-monofluoroethylthioribose-1-phosphate (MFETR-1-P).

[5] = test system: T. b. brucei LAB 110 EATRO; assay: In vivo antitrypanosomal activity, LAB EATRO mouse infection model; conditions: 7 days, miniosmotic pump
Procedure: ^a Animals were treated with surgically implanted miniosmotic pumps
loaded as per manufacturers instructions with MTA, HETA or MFETA suspende

[6] = test system: L1210 leukemic cells; assay: Antitumor effects in L1210 leukemic mice; assay type: in vivo, DBA/2N mice
Procedure: The antitumor effects of MFETA were evaluated in DBA/2N mice (Charles River) who received i.p. transplants of 10^6 L1210 leukemic cells or 10^6 L5178Y leukemic cells on day 0 according to protocols described previously by Bernacki et al., Cancer Res. 47, 799, 1987. The increase in life span (% ILS) of treated animals relative to untreated, tumor-bearing animals was used as the measure of their therapeutic effectiveness at specified dose regimens.
^a MFETA was administered i.p. on days 1, 2, 3, 4, 5 following i.p.
implantation of 10^6 tumor cells on day 0.
^b % ILS is the percentage of increase in life span.

[7] = test system: MALME (human melanoma); assay: In vitro evaluation, MALME; assay type: cell-based; conditions: medium B, 72 hours
Procedure: as §1, §2, §3

[8] = test system: LOX (human melanoma); assay: In vitro evaluation, LOX; assay type: cell-based; conditions: medium B, 72 hours
Procedure: as §1, §2, §3

[9] = test system: Ebey (human melanoma); assay: In vitro evaluation, Ebey; assay type: cell-based; conditions: medium B, 72 hours
Procedure: as §1, §2, §3

[10] = test system: A549 (human non-small cell lung carcinoma); assay: In vitro evaluation, A549; assay type: cell-based; conditions: A549, medium B, 72 hours, solvent DMSO
Procedure: as §1
(a) Basal medium + RPMI 1640 + 20 mM HEPES;
B--5% NuSerum IV + 5% FCS,
*Incubation or exposure time is determined by the doubling time of the
cell line such that each is exposed to the compound for 3-4 cell

T2 sequence (Q57XS4 entry or part of it): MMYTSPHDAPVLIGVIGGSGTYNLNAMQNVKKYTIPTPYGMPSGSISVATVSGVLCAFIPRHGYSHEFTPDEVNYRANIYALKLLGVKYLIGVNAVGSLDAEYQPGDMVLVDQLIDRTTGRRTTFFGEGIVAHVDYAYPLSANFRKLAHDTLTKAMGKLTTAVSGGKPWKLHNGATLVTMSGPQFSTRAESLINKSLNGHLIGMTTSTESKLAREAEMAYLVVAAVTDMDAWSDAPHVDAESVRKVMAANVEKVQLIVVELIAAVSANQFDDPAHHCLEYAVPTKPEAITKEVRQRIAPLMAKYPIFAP

Q: For `Nc1ncnc2c1ncn2[C@@H]1O[C@H](CSCCF)[C@@H](O)[C@H]1O` [MFETA, 5'-deoxy-5'-(monofluoroethylthio)adenosine], which Ki ([1]; mouse liver MTA phosphorylase, read-out: K1) is on record?
A: 3.1 µM

Q: And the “Substrate (% Control)” value ([1]; substrate activity relative to MTA)?
A: 64 % Control

Q: And the IC50 [2]?
A: 296 ± 9.9 µM

Q: And the “Percent Control Activity” value ([3]; +50 mM PO4, 200 μM substrate)?
A: 75.3%

Q: What about the “Percent Control Activity” value ([3]; No PO4, 200 μM substrate) of the same compound?
A: 109.1%

Q: And the IC50 [4]?
A: 10 ± 3 µM

Q: And the “% Cured” value ([5]; 10 mg/kg/day)?
A: 0%

Q: And the “MSD (mean survival in days of animals dying of infection)” value (“MSD” for short) ([5]; 10 mg/kg/day)?
A: 5.0 days

Q: What about the “Number Cured Total” value ([5]; 10 mg/kg/day) of the same compound?
A: 0/5

Q: What about the “% Cured” value ([5]; 25 mg/kg/day) of the same compound?
A: 40%

Q: And the “MSD” value ([5]; 25 mg/kg/day)?
A: 11.6 days

Q: And the “Number Cured Total” value ([5]; 25 mg/kg/day)?
A: 2/5

Q: What about the “% Cured” value ([5]; 50 mg/kg/day) of the same compound?
A: 0%

Q: What about the “MSD” value ([5]; 50 mg/kg/day) of the same compound?
A: 10.6 days

Q: And the “Number Cured Total” value ([5]; 50 mg/kg/day)?
A: 0/5

Q: And the “% Cured” value ([5]; 100 mg/kg/day)?
A: 40%

Q: And the “MSD” value ([5]; 100 mg/kg/day)?
A: 12.0 days

Q: And the “Number Cured Total” value ([5]; 100 mg/kg/day)?
A: 2/5

Q: What about the “% ILS (percentage of increase in life span)” value ([6]; L1210, 10 mg/kg i.p. days 1-5) of the same compound?
A: 14%

Q: What about the “Mean Death Weight” value ([6]; L1210, 10 mg/kg i.p. days 1-5) of the same compound?
A: 23.7 g

Q: What about the “Survival Mean ± SD” value ([6]; L1210, 10 mg/kg i.p. days 1-5) of the same compound?
A: 7.2 ± 0.5 days

Q: And the “Survival Median” value ([6]; L1210, 10 mg/kg i.p. days 1-5)?
A: 8 days

Q: What about the “Survival Range” value ([6]; L1210, 10 mg/kg i.p. days 1-5) of the same compound?
A: 6 to 8 days

Q: And the “% ILS (percentage of increase in life span)” value ([6]; L1210, 50 mg/kg i.p. days 1-5)?
A: 14%

Q: What about the “Mean Death Weight” value ([6]; L1210, 50 mg/kg i.p. days 1-5) of the same compound?
A: 24.5 g

Q: And the “Survival Mean ± SD” value ([6]; L1210, 50 mg/kg i.p. days 1-5)?
A: 7.8 ± 0.2 days

Q: What about the “Survival Median” value ([6]; L1210, 50 mg/kg i.p. days 1-5) of the same compound?
A: 8 days

Q: And the “Survival Range” value ([6]; L1210, 50 mg/kg i.p. days 1-5)?
A: 7 to 8 days

Q: What about the “% ILS (percentage of increase in life span)” value ([6]; L1210, 100 mg/kg i.p. days 1-5) of the same compound?
A: 14%

Q: And the “Mean Death Weight” value ([6]; L1210, 100 mg/kg i.p. days 1-5)?
A: 22.8 g

Q: And the “Survival Mean ± SD” value ([6]; L1210, 100 mg/kg i.p. days 1-5)?
A: 7.9 ± 0.2 days

Q: What about the “Survival Median” value ([6]; L1210, 100 mg/kg i.p. days 1-5) of the same compound?
A: 8 days

Q: And the “Survival Range” value ([6]; L1210, 100 mg/kg i.p. days 1-5)?
A: 7 to 9 days

Q: What about the “% ILS (percentage of increase in life span)” value ([6]; L1210, 200 mg/kg i.p. days 1-5) of the same compound?
A: 28%

Q: And the “Mean Death Weight” value ([6]; L1210, 200 mg/kg i.p. days 1-5)?
A: 18.4 g

Q: And the “Survival Mean ± SD” value ([6]; L1210, 200 mg/kg i.p. days 1-5)?
A: 8.8 ± 0.8 days

Q: What about the “Survival Median” value ([6]; L1210, 200 mg/kg i.p. days 1-5) of the same compound?
A: 9 days

Q: What about the “Survival Range” value ([6]; L1210, 200 mg/kg i.p. days 1-5) of the same compound?
A: 6 to 11 days

Q: And the “% ILS (percentage of increase in life span)” value ([6]; L1210, 300 mg/kg i.p. days 1-5)?
A: -72%

Q: And the “Mean Death Weight” value ([6]; L1210, 300 mg/kg i.p. days 1-5)?
A: 18.8 g

Q: And the “Survival Mean ± SD” value ([6]; L1210, 300 mg/kg i.p. days 1-5)?
A: 2.2 ± 0.2 days

Q: And the “Survival Median” value ([6]; L1210, 300 mg/kg i.p. days 1-5)?
A: 2 days

Q: And the “Survival Range” value ([6]; L1210, 300 mg/kg i.p. days 1-5)?
A: 2 to 3 days

Q: What about the IC50 [7] of the same compound?
A: 364 ± 13 µM

Q: And the IC50 [8]?
A: 268 ± 13 µM

Q: And the IC50 [9]?
A: 442 ± 13 µM

Q: And the IC50 [10]?
A: 346 µM

Reference: US5563125A, “5'-deoxy-5'-(substituted)alkylthioribose compounds and their pharmaceutical compositions” (priority 1992, dated 1996)
